Structures are written as SMILES.

Assay [1] deals with T1, 2-oxoglutarate dehydrogenase complex (OGDHC) (Sus scrofa, UniProt K9IVI1+P09623+Q9N0F1).
T1 construct: gene OGDH; purified OGDHC enzyme (Sigma K1502), intact complex; with E2 component (dihydrolipoyl transsuccinylase) and E3 component (dihydrolipoyl dehydrogenase) of the complex
T1 sequence (K9IVI1 41-1023): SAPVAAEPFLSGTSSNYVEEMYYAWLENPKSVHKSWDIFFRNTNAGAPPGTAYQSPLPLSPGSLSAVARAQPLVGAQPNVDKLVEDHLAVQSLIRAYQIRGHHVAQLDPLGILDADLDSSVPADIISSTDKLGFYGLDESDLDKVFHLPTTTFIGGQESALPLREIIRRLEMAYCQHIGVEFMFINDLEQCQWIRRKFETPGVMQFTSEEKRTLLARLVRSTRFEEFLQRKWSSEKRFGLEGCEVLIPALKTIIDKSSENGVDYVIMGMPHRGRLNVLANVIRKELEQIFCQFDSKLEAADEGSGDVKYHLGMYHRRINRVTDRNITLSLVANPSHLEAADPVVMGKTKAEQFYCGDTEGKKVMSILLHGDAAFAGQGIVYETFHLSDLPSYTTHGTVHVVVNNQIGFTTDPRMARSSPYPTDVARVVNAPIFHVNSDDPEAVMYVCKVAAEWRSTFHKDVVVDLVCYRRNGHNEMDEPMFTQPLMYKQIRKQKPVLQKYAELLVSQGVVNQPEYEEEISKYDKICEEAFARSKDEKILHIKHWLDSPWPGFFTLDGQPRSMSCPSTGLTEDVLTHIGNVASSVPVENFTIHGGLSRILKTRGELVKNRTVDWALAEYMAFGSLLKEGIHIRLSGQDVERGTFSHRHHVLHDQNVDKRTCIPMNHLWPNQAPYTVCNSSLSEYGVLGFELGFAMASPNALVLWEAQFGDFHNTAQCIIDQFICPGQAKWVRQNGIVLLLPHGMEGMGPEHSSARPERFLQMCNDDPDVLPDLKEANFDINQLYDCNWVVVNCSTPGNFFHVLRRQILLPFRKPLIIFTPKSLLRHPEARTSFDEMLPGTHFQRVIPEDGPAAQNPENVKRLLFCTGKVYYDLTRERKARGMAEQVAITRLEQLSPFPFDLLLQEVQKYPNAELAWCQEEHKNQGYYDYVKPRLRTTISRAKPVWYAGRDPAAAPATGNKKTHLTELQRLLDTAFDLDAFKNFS
T1 sequence (Q9N0F1 69-455): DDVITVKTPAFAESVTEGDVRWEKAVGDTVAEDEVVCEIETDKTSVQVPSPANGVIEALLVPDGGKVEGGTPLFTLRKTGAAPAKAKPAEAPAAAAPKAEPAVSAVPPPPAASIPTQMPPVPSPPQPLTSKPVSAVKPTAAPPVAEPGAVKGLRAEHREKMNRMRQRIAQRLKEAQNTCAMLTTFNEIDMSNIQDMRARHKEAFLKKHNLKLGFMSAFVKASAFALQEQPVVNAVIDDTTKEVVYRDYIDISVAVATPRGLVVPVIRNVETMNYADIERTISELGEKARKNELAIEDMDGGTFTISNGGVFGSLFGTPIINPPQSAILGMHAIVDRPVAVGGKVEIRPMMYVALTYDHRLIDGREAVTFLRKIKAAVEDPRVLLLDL
T1 sequence (P09623 36-509): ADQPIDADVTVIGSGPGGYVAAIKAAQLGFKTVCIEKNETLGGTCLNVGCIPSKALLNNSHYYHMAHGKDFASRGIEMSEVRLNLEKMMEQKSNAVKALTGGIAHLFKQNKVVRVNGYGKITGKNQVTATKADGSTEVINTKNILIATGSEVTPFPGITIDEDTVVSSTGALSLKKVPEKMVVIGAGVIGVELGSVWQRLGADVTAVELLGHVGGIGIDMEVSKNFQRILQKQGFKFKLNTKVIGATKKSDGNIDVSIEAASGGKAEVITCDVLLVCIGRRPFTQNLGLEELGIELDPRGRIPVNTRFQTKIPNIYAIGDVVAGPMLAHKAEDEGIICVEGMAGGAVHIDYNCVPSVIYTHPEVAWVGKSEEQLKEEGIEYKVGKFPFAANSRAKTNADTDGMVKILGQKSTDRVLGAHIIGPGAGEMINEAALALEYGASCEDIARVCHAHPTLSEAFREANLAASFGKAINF
The experiment in a line: Michaelis-Menten kinetics of purified complex, NADH absorbance at […] nm, […] TPMP. The class given is biochemical.

Assay [2] has as its target T2, 2-oxoglutarate dehydrogenase complex (OGDHC) (Rattus norvegicus, UniProt Q01205+Q5XI78+Q6P6R2).
T2 sequence (Q5XI78 41-1023): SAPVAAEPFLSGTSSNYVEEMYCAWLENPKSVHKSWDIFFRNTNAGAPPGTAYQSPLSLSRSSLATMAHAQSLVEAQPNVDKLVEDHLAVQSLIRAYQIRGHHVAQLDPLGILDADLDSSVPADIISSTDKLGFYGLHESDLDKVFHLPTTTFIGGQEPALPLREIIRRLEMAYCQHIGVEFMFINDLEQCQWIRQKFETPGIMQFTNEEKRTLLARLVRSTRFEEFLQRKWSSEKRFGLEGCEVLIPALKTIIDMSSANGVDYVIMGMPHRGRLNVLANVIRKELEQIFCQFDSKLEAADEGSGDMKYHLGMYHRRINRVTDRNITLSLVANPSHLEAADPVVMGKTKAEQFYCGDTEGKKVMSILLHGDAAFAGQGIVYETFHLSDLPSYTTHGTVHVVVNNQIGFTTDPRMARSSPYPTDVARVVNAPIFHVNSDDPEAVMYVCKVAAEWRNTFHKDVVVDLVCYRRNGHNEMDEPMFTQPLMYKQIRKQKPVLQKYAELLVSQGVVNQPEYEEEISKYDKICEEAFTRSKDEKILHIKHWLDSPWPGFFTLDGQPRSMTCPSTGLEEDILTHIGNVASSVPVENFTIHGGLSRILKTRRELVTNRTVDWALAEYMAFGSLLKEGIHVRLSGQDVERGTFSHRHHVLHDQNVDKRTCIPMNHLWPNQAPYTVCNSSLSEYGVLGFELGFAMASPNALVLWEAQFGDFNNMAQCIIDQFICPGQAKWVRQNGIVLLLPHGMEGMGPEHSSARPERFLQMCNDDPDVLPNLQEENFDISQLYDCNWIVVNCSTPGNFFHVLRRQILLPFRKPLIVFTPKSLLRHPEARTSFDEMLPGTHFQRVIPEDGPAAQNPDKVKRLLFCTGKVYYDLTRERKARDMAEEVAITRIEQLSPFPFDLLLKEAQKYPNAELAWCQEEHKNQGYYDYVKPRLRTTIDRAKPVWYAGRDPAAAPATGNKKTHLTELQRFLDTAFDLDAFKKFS
T2 sequence (Q01205 69-454): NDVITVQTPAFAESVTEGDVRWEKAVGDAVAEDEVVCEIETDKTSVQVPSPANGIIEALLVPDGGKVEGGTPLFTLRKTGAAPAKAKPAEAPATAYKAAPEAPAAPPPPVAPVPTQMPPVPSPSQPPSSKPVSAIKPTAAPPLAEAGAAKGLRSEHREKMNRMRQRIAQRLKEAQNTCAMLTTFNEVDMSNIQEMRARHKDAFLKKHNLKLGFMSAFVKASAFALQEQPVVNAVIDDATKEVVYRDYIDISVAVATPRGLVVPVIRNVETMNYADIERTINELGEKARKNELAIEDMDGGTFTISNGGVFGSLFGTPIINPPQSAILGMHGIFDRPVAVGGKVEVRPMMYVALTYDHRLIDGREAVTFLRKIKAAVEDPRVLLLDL
T2 sequence (Q6P6R2 36-509): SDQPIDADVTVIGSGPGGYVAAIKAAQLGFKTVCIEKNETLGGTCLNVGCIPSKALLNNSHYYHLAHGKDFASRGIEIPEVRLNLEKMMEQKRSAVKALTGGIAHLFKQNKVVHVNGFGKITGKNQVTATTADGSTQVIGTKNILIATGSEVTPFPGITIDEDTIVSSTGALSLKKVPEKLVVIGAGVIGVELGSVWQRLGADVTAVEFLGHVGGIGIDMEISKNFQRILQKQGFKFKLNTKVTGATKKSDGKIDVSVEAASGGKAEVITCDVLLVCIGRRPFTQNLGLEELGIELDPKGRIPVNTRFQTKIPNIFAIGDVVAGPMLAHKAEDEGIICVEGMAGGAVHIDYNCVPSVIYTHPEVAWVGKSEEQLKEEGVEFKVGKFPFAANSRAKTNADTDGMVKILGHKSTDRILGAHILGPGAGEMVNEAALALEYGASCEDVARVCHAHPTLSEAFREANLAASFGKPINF
The experiment in a line: biochemical. Also on record: gene Ogdh.

Assay [3] has as its target T2, 2-oxoglutarate dehydrogenase complex (OGDHC). The experiment in a line: spectrophotometric OGDHC activity (A340) at […] compound in muscle homogenate. The class given is cell-based. The settings on record: read-out: % of control activity at 1 mM. More on the design: gene Ogdh; native complex in rat skeletal muscle homogenate enriched in mitochondrial fraction; with E2 and E3 components of the complex.

The IC50 is the concentration that gives 50% inhibition. Turning to `C[P+](c1ccccc1)(c1ccccc1)c1ccccc1` [TPMP, Methyltriphenylphosphonium], in assay [1], the “Michaelis-Menten kinetics of purified complex, NADH absorbance at 340 nm, 0-5 mM” value was “The pattern of decreasing Vmax and increasing Km fits in a mixed-inhibition model”. The midpoint of inhibition in assay [2], the IC50, lay at 3.93 mM. With `CCCCC[P+](c1ccccc1)(c1ccccc1)c1ccccc1` [Pentyl, pentyltriphenylphosphonium], in assay [3], the remaining activity at 1000 µM was found to be 15.9%. On the same count and under the same terms, as for `CCC[P+](c1ccccc1)(c1ccccc1)c1ccccc1` [Propyl, propyltriphenylphosphonium], the figure is 60.7%.

For the origin of these results see article PMC4990249, “Mitochondrial Probe Methyltriphenylphosphonium (TPMP) Inhibits the Krebs Cycle Enzyme 2-Oxoglutarate Dehydrogenase” (PLoS ONE, 2016).
